Where two headings read alike, the source gives them in different places.
Legend:
[1] = system: HMCLs with the low AOX/ROS risk signatures (JJN3, XG-6, XG-19, XG-20, XG-24); assay: HMCL viability, Cell Titer Glo assay, IC50 at 96h (low AOX/ROS risk signature lines); format: cell-based, human; settings: for IC50: Homo sapiens; for fold higher sensitivity of low AOX/ROS HMCLs as compared to high AOX/ROS HMCLs: ratio of median IC50 at 96h, p<0.003
Description: (§1) The HMCLs XG-6, XG-19, XG-20, XG24, JJN3, AMO1, LP1, L363, OPM2 and RPMI8226 were grown in RPMI-1640 supplemented with 10% FBS. XG-6, XG-19, XG-20, XG-24, and LP1 media was supplemented with 2 ng/mL recombinant IL-6. Cells were plated in 96-well plate in 200 μL complete medium. After 24h, cells were treated with increasing concentrations of Melphalan (European Pharmacopeia Reference-Standards, France) or Bortezomib (Axon, Medchem, France) and at day 4 post treatment, the viable cells were assessed using Cell Titer Glo assay (Promega, Madison, WI). The IC50 at 96h were determined using GraphPad Prism software.
(§2) Considering the GEP of 40 HMCLs (Moreaux et al., 2011), HMCLs AOX and ROS risk signatures were determined. The 5 HMCLs with the highest (AMO1, L363, LP1, OPM2, RPMI8266) and the lowest (JJN3, XG-6, XG-19, XG-20, XG-24) AOX/ROS scores were selected to assay Melphalan and Bortezomib sensitivities (Moreaux et al., 2012 and Moreaux et al., 2013).

[2] = system: CD138+ cells from patients (primary myeloma cells); assay: Primary CD138+ myeloma cells from patient bone marrow samples, flow cytometry with anti-CD138 APC antibody after 5 days; format: cell-based, human; settings: 5 mM GSH with 10, 20 and 30 μM Melphalan, n=10 patients, p<0.05
Description: After 5 days the percentage and absolute number of CD138^+ cells was assessed by flow cytometry using an anti-CD138 APC antibody. * indicates a significant difference using a Student test for pairs (P≤0.05).

[3] = system: HMCLs with high AOX/ROS risk signatures (AMO1, L363, LP1, OPM2, RPMI8266); assay: HMCL viability, Cell Titer Glo assay, IC50 at 96h (high AOX/ROS risk signature lines); format: cell-based; settings: Homo sapiens
Description: as §1, §2

Row | SMILES | IC50 ([1]; JJN-3, low AOX/ROS HMCLs, 96h, median over 5 cell lines, read-out: Median IC50) [nM] | IC50 ([1]; JJN-3, low AOX/ROS HMCLs, 96h, range over 5 cell lines, read-out: IC50 range) [nM] | fold higher sensitivity of low AOX/ROS HMCLs as compared to high AOX/ROS HMCLs [1] [fold] | protection of primary myeloma cells from melphalan induced apoptosis [2] | IC50 ([1]; JJN-3, 96 h, read-out: IC50 range) [nM] | IC50 ([1]; JJN-3, 96 h, read-out: Median IC50) [nM] | IC50 ([3]; read-out: IC50 range) [µM] | IC50 ([3]; read-out: Median IC50) [µM]
1 | CC(C)C[C@H](NC(=O)[C@H](Cc1ccccc1)NC(=O)c1cnccn1)B(O)O [Bortezomib] | 0.51 | 0.27 to 0.85 | 3.5 |  |  |  |  | 
2 | N[C@@H](CCC(=O)N[C@@H](CS)C(=O)NCC(=O)O)C(=O)O [GSH, glutathione] |  |  |  | significantly protect |  |  |  | 
3 | N[C@@H](Cc1ccc(N(CCCl)CCCl)cc1)C(=O)O [Melphalan] |  |  | 4 |  | 2250 to 8340 | 3110 | 9.02 to 18.7 | 13.7

— patent US12071671B2 (priority 2018, dated 2024)
